“Also recorded” adds a separate entry of the source.
Columns and labels:
human α9α10 nAChR = settings: cited from earlier work
N-type calcium channels = settings: cited from earlier work
neuropathic pain models = settings: in vivo; cited from earlier work
GABAB receptor [1] = settings: cited from earlier work
[2] = test system: rat GABAB receptor (GABAB1a/GABAB2); assay type: cell-based
[3] = test system: rat GABAB receptor (GABAB1/GABAB2); assay type: binding
GABAB receptor [4] = settings: cited from earlier work; remark: listed apart in the source
[5] = test system: N-type calcium channels in dorsal root ganglion neurons; settings: cited from earlier work

## Vc1.1
Human α9α10 nAChR
  Potency human vs. rat α9α10 nAChR: much less potent at the human vs. rat α9α10 nAChR
N-type calcium channels
  N-type calcium channel block in α9 KO neurons: block N-type calcium channels in cultured neurons from α9 KO mice
Neuropathic pain models
  Analgesic effect: analgesic activity in several models of neuropathic pain
GABAB receptor [1]
  Competition with [3H]CGP54626: did not compete for binding with [3H]CGP54626
[2]
  GABABR activation (BRET change): do not activate GABABRs expressed in HEK cells; also recorded: no effect; also recorded: neither Vc1.1 nor any of the examined conotoxins activated the GABABR
[3]
  Displacement of CGP54626-Red: No displacement; also recorded: None of these conotoxins prevented the binding of the competitive orthosteric antagonist CGP54626-Red
GABAB receptor [4]
  Competition with CGP54626: did not compete for binding
[5]
  Block of N-type calcium channels: blocks N-type calcium channels in dorsal root ganglion; also recorded: block N-type calcium channels in DRG neurons
  Effect of G-protein signalling inhibition on N-type channel block: block of N-type calcium channels was eliminated by pertussis toxin, intracellular GDPβS, or an inhibitor of pp60c-src tyrosine kinase
